The values below come from patent US20130244995A1, “CALCIUM-SENSING RECEPTOR-ACTIVE COMPOUNDS” (LEO PHARMA A/S, priority 2010, published 2013).

In the assay the target is T1, human CaSR (Homo sapiens, UniProt P41180).
T1 sequence (P41180 20-1078): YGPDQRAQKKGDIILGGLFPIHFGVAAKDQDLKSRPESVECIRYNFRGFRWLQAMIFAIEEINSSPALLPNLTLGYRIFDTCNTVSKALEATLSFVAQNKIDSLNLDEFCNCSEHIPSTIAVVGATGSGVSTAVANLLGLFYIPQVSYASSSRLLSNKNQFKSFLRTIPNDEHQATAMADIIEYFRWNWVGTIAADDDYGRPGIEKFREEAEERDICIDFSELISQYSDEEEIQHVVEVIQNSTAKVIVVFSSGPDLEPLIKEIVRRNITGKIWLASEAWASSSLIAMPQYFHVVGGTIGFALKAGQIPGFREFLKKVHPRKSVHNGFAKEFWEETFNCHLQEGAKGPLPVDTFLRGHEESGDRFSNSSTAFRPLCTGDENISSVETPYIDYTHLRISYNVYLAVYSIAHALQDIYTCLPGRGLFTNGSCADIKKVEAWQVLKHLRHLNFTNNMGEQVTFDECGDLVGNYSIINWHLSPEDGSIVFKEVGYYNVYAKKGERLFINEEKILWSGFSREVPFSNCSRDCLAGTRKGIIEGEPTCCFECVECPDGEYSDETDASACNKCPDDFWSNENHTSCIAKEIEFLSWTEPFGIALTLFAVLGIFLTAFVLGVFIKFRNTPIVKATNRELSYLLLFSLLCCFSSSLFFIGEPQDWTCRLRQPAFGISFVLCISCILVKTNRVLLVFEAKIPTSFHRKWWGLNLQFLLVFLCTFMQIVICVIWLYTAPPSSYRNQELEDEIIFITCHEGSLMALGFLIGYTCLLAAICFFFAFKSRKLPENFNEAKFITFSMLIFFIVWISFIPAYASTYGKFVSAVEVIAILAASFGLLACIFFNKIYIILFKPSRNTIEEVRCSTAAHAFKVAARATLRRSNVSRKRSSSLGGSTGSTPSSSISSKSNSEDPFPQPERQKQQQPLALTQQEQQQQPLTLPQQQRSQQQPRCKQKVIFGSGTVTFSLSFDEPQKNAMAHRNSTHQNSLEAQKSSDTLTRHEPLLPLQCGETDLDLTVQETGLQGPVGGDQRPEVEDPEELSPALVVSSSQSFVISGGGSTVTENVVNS
As to the kind of experiment: Functional whole cell assay (modulation of human CaSR), IP1 accumulation in CHO-K1 cells. Type of assay: cell-based. As to conditions: CHO-K1 cells stably expressing human CaSR, final Ca2+ 1.9 mM, IP1 (IP-One htrf). The source says:
The assay investigates a compound's functional ability to act as a biological positive modulator on the human CaSR. Activation of the receptor expressed on CHO-K1 cells is detected through the G alpha q pathway, the activation of phospholipase C and the accumulation of intracellular inositol phosphate (IP) as described earlier [Sandrine Ferry, Bruno Chatel, Robert H. Dodd, Christine Lair, Danielle Gully, Jean-Pierre Maffrand, and Martial Ruat. Effects of Divalent Cations and of a Calcimimetic on Adrenocorticotropic Hormone Release in Pituitary Tumor Cells. Biological and Biophysical Research Comm., 238, 866-873 (1997)]. The human CaSR is stably expressed on a CHO-K1 cell clone, stimulated with a basal level of calcium and challenged with the tested compound. The level of IP1 is determined using the IP-One Terbium htrf kit (Cisbio, France). CHO-K1 cells not transfected with the CaSR fail to elicit an IP1 response upon calcium and/or compound stimulation.
The ORF coding for the human CaSR (genebank: NM_000388) was acquired from Invitrogen Corp, USA and subsequently cloned into the mammalian expression vector pCDA3.1.
CHO-K1 cells were transfected using Lipofectamine according to manufacturer's protocol (400.000 cells/well were seeded in a 6-well plate and transfected after 24 hours using 2 μg DNA and 5 μl lipofectamine). After another 24 hours the cells were detached, seeded and subjected to 1mg/ml of G-418. Following 7 days growth single clones were picked, the CaSR expression evaluated using the 5C10 antibody against CaSR, the clones with the highest expression were selected and tested for functional response. The preferred clone was cultured according to standard procedures described in ATCC (American Type Culture Collection) protocols for CHO-K1 with the addition of 500 μg/ml G-418.
On the assay day, cells were thawed, harvested and resuspended to 4*10^6 cells/ml in stimulation buffer (containing: Hepes 10mM, MgCl2 0.5mM, KCl 4.2 mM, NaCl 146 mM, glucose 5.5 mM, LiCl 50 mM, BSA 0.5% at pH 7.4). Ten μl cell solution was pipetted into wells of a white 384-well plate (Perkin Elmer Optiplate) containing 2 μl compound diluted in assay buffer (containing: Hepes 10 mM, MgCl2 0.5mM, KCl 4.2mM, NaCl 146mM, glucose 5.5 mM, LiCl 50 mM, CaCl2 11.4 mM at pH 7.4), resulting in a final Ca^2+ concentration of 1.9 mM. After compound stimulation for 1 hour at 37° C. and 15 min at room temperature, 10 ul of IP-One assay detection reagent (prepared as described by the IP-One assay kit manufacturer) was added and the plate was incubated for another 1 hour at room temperature. Finally the plate was read using a Perkin Elmer EnVision, according to the protocol supplied by the IP-One assay kit manufacturer. The FRET ratio was calculated by dividing the 665 nm emission signal with that of the 615 nm.
The molar concentration of a compound that produces 50% of the maximum agonistic response (the […] value) is calculated according to the equation “General sigmoidal curve with Hill slope, a to d” (Equation 1). This model describes a sigmoidal curve with an adjustable baseline. The equation can be used to fit curves where response is either increasing or decreasing with respect to the independent variable, X. […]
y=(a−d)/(1+(x/c)̂b)+d Equation 1. x=concentration of tested compound […]
a=min response as compound concentration approaches 0 d=max response as concentration of tested compound is increasing […]
b=Hill coefficient or curve slope
Assay results using compounds of the present invention indicate that compounds of the present invention are potent modulators of CaSR, thus making them potentially useful in the treatment of diseases related to kidneys or bones.

SMILES strings stand for the structures.

`COc1cc([C@@H](C)N[C@H]2CC[C@@H](c3ccc(CC(=O)NCCNS(C)(=O)=O)cc3)C2)ccc1F` [Compound 102, 2-[4-[(1R,3S)-3-[[(1R)-1-(4-Fluoro-3-methoxy-phenyl)ethyl]amino]-cyclopentyl]phenyl]-N-[2-(methanesulfonamido)ethyl]acetamide; formic acid] showed an EC50 of 0.2 to 1 µM. Next, `COc1cc([C@@H](C)N[C@H]2CC[C@@H](c3ccc(CC(=O)NCCS(N)(=O)=O)cc3)C2)ccc1F` [Compound 103, 2-[4-[(1R,3S)-3-[[(1R)-1-(4-Fluoro-3-methoxy-phenyl)ethyl]amino]-cyclopentyl]phenyl]-N-(2-sulfamoylethyl)acetamide; formic acid]: under 0.2 µM; `C[C@@H](N[C@H]1CC[C@@H](c2ccc(CC(=O)NCCS(N)(=O)=O)cc2)C1)c1cccc2c1OCO2` [Compound 104, 2-[4-[(1R,3S)-3-[[(1R)-1-(1,3-Benzodioxol-4-yl)ethyl]amino]-cyclo-pentyl]-phenyl]-N-(2-sulfamoylethyl)acetamide]: under 0.2 µM. Consider `CCOc1cccc([C@@H](C)N[C@H]2CC[C@@H](c3ccc(CC(=O)NCCS(N)(=O)=O)cc3)C2)c1` [Compound 106, 2-[4-[(1R,3S)-3-[[(1R)-1-(3-Ethoxyphenyl)ethyl]amino]cyclopentyl]phenyl]-N-(2-sulfamoylethyl)acetamide], for which the EC50 was under 0.2 µM. `COc1cc([C@@H](C)N[C@H]2CC[C@@H](c3ccc(CC(=O)NCCNCCO)cc3)C2)ccc1F` [Compound 108, 2-[4-[(1R,3S)-3-[[(1R)-1-(4-Fluoro-3-methoxy-phenyl)ethyl]amino]-cyclopentyl]phenyl]-N-[2-(2-hydroxyethylamino)ethyl]acetamide] had an EC50 of under 0.2 µM.

Consider `COc1cc([C@@H](C)N[C@H]2CC[C@@H](c3ccc(CC(=O)N4CC(O)C4)cc3)C2)ccc1F` [Compound 109, 2-[4-[(1R,3S)-3-[[(1R)-1-(4-Fluoro-3-methoxy-phenyl)ethyl]amino]-cyclopentyl]phenyl]-1-(3-hydroxyazetidin-1-yl)ethanone], for which the EC50 is under 0.2 µM. As for `COc1cc([C@@H](C)N[C@H]2CC[C@@H](c3ccc(CC(=O)N4CCCNCC4)cc3)C2)ccc1F` [Compound 110, 1-(1,4-Diazepan-1-yl)-2-[4-[(1R,3S)-3-[[(1R)-1-(4-fluoro-3-methoxy-Phenyl)ethyl]amino]cyclopentyl]phenyl]ethanone], the EC50 was under 0.2 µM. `COc1cc([C@@H](C)N[C@H]2CC[C@@H](c3ccc(CC(=O)N4CCC(N)CC4)cc3)C2)ccc1F` [Compound 112, 1-(4-Amino-1-piperidyl)-2-[4-[(1R,3S)-3-[[(1R)-1-(4-fluoro-3-methoxy-phenyl)ethyl]amino]cyclopentyl]phenyl]ethanone]: the EC50 was under 0.2 µM.
